Test results from the NIST ThermoML archive (doi:10.1016/j.jct.2005.01.017).
Numbers after ± are expanded uncertainties.

Assay: xn = mol fraction of the nth substance listed
Conditions: 101 kPa, Liquid

CC1COC(=O)O1 (stereo unspecified) [4-methyl-1,3-dioxolan-2-one] + Cc1ccccc1C
Conditions | mass density [kg/m3]
323.15 K, x2 = 0.4487 | 982.22 ± 40
323.15 K, x2 = 0.5031 | 966.07 ± 40
323.15 K, x2 = 0.5529 | 951.78 ± 40
323.15 K, x2 = 0.6249 | 931.92 ± 40
323.15 K, x2 = 0.6843 | 916.18 ± 40
323.15 K, x2 = 0.7451 | 900.64 ± 40
323.15 K, x2 = 0.8146 | 883.52 ± 40
323.15 K, x2 = 0.8702 | 870.29 ± 40
323.15 K, x2 = 0.9429 | 853.56 ± 40
333.15 K, x2 = 0 | 1123.99 ± 40
333.15 K, x2 = 0.0578 | 1099.25 ± 40
333.15 K, x2 = 0.1298 | 1070.06 ± 40
333.15 K, x2 = 0.1844 | 1049.03 ± 40
333.15 K, x2 = 0.2358 | 1030.04 ± 40
333.15 K, x2 = 0.3139 | 1002.61 ± 40
333.15 K, x2 = 0.3847 | 979.1 ± 40
333.15 K, x2 = 0.4412 | 961.2 ± 40
333.15 K, x2 = 0.5055 | 941.69 ± 40
333.15 K, x2 = 0.5572 | 926.61 ± 40
333.15 K, x2 = 0.6148 | 910.43 ± 40
333.15 K, x2 = 0.6627 | 897.43 ± 40
333.15 K, x2 = 0.7365 | 878.16 ± 40
333.15 K, x2 = 0.7947 | 863.56 ± 40
333.15 K, x2 = 0.8634 | 846.95 ± 40
333.15 K, x2 = 0.9354 | 830.22 ± 40
343.15 K, x2 = 0 | 1105.98 ± 40
343.15 K, x2 = 0.0527 | 1081.81 ± 40
343.15 K, x2 = 0.1278 | 1049.31 ± 40
343.15 K, x2 = 0.1782 | 1028.67 ± 40
343.15 K, x2 = 0.2476 | 1001.67 ± 40
343.15 K, x2 = 0.3279 | 972.32 ± 40
343.15 K, x2 = 0.3841 | 952.89 ± 40
343.15 K, x2 = 0.4529 | 930.23 ± 40
343.15 K, x2 = 0.5139 | 911.13 ± 40
343.15 K, x2 = 0.5732 | 893.36 ± 40
343.15 K, x2 = 0.6241 | 878.7 ± 40
343.15 K, x2 = 0.6742 | 864.77 ± 40
343.15 K, x2 = 0.7246 | 851.23 ± 40
343.15 K, x2 = 0.7726 | 838.75 ± 40
343.15 K, x2 = 0.8523 | 818.84 ± 40
343.15 K, x2 = 0.9274 | 800.96 ± 40
353.15 K, x2 = 0 | 1088.38 ± 40
353.15 K, x2 = 0.0639 | 1056.4 ± 40
353.15 K, x2 = 0.1128 | 1033.26 ± 40
353.15 K, x2 = 0.1832 | 1001.84 ± 40
353.15 K, x2 = 0.2478 | 974.79 ± 40
353.15 K, x2 = 0.3255 | 944.31 ± 40
353.15 K, x2 = 0.3859 | 922.03 ± 40
353.15 K, x2 = 0.4628 | 895.28 ± 40
353.15 K, x2 = 0.5248 | 874.93 ± 40
353.15 K, x2 = 0.5819 | 857.07 ± 40
353.15 K, x2 = 0.6249 | 844.14 ± 40
353.15 K, x2 = 0.6829 | 827.36 ± 40
353.15 K, x2 = 0.7249 | 815.64 ± 40
353.15 K, x2 = 0.7821 | 800.25 ± 40
353.15 K, x2 = 0.8698 | 777.8 ± 40
